Patent US11834414B2, “1-methyl-4-[(4-phenylphenyl)sulfonylmethyl]cyclohexyanol and 1-methyl-4-[[4-(2-pyridyl)phenyl]sulfonylmethyl]cyclohexanol compounds and their therapeutic use” (Modern Biosciences Limited, priority 2018, dated 2023)

Assays:
[1] = system: collagen-induced arthritis in DBA/1j mice; experiment: Mouse Collagen-Induced Arthritis; format: in vivo; conditions: 10 mg/kg/day, once daily for 14 days, arthritic index vs control
Procedure: Seven- to eight-week-old male DBA/1j mice were used for all procedures. Animals were housed in groups of 10, and were maintained at 21° C.±2° C. on a 12-hour light/dark cycle with food and water ad libitum. Complete Freund's adjuvant (CFA) was prepared by emulsifying bovine type II collagen at 4 mg/mL with a 4 mg/mL suspension of Mycobacterium tuberculosis H37Ra in Incomplete Freund's Adjuvant (IFA) (0.85 mL paraffin oil and 0.15 mL mannide monooleate) in a 1:1 (v/v) ratio. All mice were immunised subcutaneously with 200 μg of bovine type II collagen in CFA. 21 days later, all mice were immunised subcutaneously with 100 μg of bovine type II collagen in IFA. The mice started to develop signs and symptoms of arthritis following the ‘booster’ immunisation.
For macroscopic assessment of arthritis, the following signs were monitored in each paw of each mouse three times per week and summed to generate the Arthritic Index (AI) (the maximum AI for one animal is 16): • 0=no visible effects of arthritis. • 1=oedema and/or erythema of 1 digit. • 2=oedema and/or erythema of 2 digits. • 3=oedema and/or erythema of more than 2 digits. • 4=severe arthritis of entire paw and digits.
Animals were sorted into treatment groups with a mean arthritic index of 2.5 and then dosed once daily for 14 days with compound: by oral gavage for test compounds, or by subcutaneous injection at a dose of 10 mg/kg for the positive control, etanercept. After completion of the experiment, the mice were sacrificed.
The data were analysed by generating an average of the arthritic index across each treatment group. The mean arthritic index was then compared to the arthritic index of control (untreated) animals using the following formula to generate a percentage inhibition of disease.

CYP2C19 = CYP2C19 (Homo sapiens (Human), UniProt P33261); experiment: Human Cytochrome P450 Inhibition Assay (Bactosomes); format: in vitro ADME; conditions: recombinant Bactosomes, 10 minutes, 37° C.
Sequence of CYP2C19 (P33261 whole entry): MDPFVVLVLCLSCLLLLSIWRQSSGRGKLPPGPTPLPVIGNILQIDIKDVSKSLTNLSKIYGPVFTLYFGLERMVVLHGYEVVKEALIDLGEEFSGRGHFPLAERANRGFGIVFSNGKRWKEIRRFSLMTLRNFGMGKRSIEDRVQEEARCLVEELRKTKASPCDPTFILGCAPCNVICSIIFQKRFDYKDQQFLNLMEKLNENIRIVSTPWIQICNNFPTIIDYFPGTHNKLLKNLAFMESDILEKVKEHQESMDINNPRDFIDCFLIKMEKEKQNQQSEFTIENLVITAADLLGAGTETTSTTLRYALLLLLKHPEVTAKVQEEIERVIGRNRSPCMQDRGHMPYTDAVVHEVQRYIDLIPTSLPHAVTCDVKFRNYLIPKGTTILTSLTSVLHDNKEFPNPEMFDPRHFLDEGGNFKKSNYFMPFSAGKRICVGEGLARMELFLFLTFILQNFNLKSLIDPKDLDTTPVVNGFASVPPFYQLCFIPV

rat hepatocytes = experiment: Rat hepatocyte stability; format: in vitro ADME; conditions: 1 μM, 60 minute incubation
Procedure: (§1) Metabolic stability of test compounds was measured by determination of the rate of disappearance of the compound when incubated in the presence of rat or human hepatocytes, a primary source of the most important enzymes (cytochrome P450s) involved in drug metabolism. Study of drug stability in the presence of primary hepatocytes is accepted as a valuable model permitting rapid prediction of in vivo drug stability.
(§2) Rat or human hepatocytes were obtained from a commercial source and viability was assessed using a trypan blue solution prior to use. Test compounds (final concentration 1 μM, 0.1% DMSO, 0.9% acetonitrile) or a marker (diclofenac or diltiazem, final assay concentration 1 μM, 0.1% DMSO, 0.9% acetonitrile) were incubated with pooled hepatocytes for a 60 minute period and samples removed at up to 6 time points and analysed by LC-MS/MS for the presence/amount of test compounds.
(§3) Each compound was incubated for 0, 5, 15, 30, 45, or 60 minutes. The reactions were stopped by the addition of methanol containing an internal standard (1 μM Tolbutamide) at the appropriate time points, mixed and placed at −20° C. for ≥1 hour to quench and allow protein to precipitate. All samples were centrifuged (2500×g, 20 minutes, 4° C.). The aliquots were analysed using LC-MS/MS. Reactions were performed in duplicate at 37° C.
(§4) Data were processed, and the results plotted as In(concentration) vs. time. The elimination rate constant (slope of the regression line, k) was calculated using the following formula, where C(t) is the concentration at time t and C(0) is the starting concentration:
(§5) The half-life (t1/2) was calculated using the following formula: […]
(§6) The intrinsic clearance (CIint) was calculated using the following formula, where [cell] is the hepatocyte concentration in the assay: […]

CYP1A2 = CYP1A2 (Homo sapiens (Human), UniProt P05177); experiment: Human Cytochrome P450 Inhibition Assay (Bactosomes)
Sequence of CYP1A2 (P05177 whole entry): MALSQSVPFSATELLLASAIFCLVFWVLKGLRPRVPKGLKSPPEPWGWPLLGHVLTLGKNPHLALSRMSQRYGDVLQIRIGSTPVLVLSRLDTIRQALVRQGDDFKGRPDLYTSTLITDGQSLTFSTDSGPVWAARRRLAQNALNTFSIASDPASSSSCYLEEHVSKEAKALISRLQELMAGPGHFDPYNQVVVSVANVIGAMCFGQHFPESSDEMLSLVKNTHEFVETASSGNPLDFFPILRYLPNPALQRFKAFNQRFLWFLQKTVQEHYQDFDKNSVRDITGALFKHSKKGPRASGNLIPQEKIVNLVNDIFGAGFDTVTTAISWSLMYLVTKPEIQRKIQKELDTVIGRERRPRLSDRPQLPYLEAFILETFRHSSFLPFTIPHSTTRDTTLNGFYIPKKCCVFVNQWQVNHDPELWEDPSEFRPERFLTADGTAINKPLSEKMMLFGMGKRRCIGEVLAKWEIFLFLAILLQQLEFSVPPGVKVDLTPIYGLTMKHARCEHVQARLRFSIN

CYP2C9 = CYP2C9 (Homo sapiens (Human), UniProt P11712); experiment: as above; format: in vitro ADME; conditions: recombinant Bactosomes, 10 minutes, 37° C.
Sequence of CYP2C9 (P11712 whole entry): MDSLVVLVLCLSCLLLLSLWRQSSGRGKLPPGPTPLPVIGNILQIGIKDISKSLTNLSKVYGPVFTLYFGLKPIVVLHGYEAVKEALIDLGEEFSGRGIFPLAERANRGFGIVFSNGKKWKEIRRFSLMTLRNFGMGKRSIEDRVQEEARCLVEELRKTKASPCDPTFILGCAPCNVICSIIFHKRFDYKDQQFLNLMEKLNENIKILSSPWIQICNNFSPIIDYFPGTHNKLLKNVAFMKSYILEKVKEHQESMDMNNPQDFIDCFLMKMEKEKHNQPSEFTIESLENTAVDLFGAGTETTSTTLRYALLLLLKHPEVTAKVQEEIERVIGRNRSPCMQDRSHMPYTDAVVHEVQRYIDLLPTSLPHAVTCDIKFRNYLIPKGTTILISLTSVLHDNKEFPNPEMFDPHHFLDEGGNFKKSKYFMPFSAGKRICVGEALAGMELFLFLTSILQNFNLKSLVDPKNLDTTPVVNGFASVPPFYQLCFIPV

[2] = system: Thp1 human monocytic cells; experiment: Thp1 Monocyte ATP Production Assay; format: cell-based; conditions: Thp1 cells, 24 hour incubation, ATPLite; 9-point range 10 μM to 10 nM, mean of 2 independent experiments
Procedure: In vitro potency of test compounds was determined by incubation with Thp1 human monocytic cells and subsequent determination of Adenosine TriPhosphate (ATP) levels using firefly luciferase.
ATP is present in all metabolically active cells. When cells lose integrity, their ability to synthesise ATP is rapidly lost. […] See, e.g., Kang et al., 2015; Jiang et al., 2013. Levels of ATP can be monitored using a system based on firefly (Photinus pyralis) luciferase (see, e.g., Auld et al., 2009) using commercially available kits. A system known as
ATPlite™ was using to measure effects of the test compounds on cellular viability in vitro. This one-step assay system is an adenosine triphosphate (ATP) monitoring system based on the production of light caused by the reaction of ATP from the cells with added luciferase and D-luciferin, as illustrated in the reaction scheme below:
The emitted light is proportional to the ATP concentration.
Thp1 cells were plated at 112500 cells per well in 125 μL RPMI-1640 (no glucose) with 1% FBS in 96-well plates. Test compounds were prepared as 100 mM solutions in DMSO. These stock solutions were diluted in DMSO and then diluted 1000× in culture medium (RPMI) before being added directly to the wells so as to give the desired final compound concentration. After a 24 hour incubation at 37° C./5% CO2, ATPLite™ (Perkin Elmer) was added to each well (1:10 v/v, 10 μL). The plate was then incubated at room temperature for 5 minutes and the emitted light was quantified on Viewlux with a measurement time of 0.3 seconds and binning 4×4.
The average results for each test compound were expressed as a percent (%) of the average control value reflecting cell viability. The average values across the concentrations tested were then plotted and the IC50 for was calculated by fitting the data to a 4-parameter IC50 equation using software from Graf it (Erithacus Software). Each experiment was repeated twice and the data are presented as the mean IC50 from both experiments.

CYP2D6 = CYP2D6 (Homo sapiens (Human), UniProt P10635); experiment: Human Cytochrome P450 Inhibition Assay (Bactosomes); format: in vitro ADME; conditions: recombinant Bactosomes, 10 minutes, 37° C.
Sequence of CYP2D6 (P10635 whole entry): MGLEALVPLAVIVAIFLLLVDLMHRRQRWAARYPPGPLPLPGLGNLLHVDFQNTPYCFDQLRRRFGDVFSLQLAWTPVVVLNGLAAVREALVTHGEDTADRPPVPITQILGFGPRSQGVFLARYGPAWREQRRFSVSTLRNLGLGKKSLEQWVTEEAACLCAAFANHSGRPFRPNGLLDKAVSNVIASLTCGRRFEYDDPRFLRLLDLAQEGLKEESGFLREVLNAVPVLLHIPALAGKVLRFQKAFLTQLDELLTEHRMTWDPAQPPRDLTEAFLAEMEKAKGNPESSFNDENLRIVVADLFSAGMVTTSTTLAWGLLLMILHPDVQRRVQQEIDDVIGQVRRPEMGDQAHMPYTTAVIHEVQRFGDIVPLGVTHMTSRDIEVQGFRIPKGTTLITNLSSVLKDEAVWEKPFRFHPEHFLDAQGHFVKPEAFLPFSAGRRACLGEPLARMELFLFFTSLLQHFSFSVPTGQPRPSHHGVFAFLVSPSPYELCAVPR

human hepatocytes = experiment: Human hepatocyte stability; format: in vitro ADME; conditions: human hepatocytes, 1 μM, 60 minute incubation
Procedure: as §1, §2, §3, §4, §5, §6

CYP3A4 = CYP3A4 (Homo sapiens (Human), UniProt P08684); experiment: Human Cytochrome P450 Inhibition Assay (Bactosomes); format: in vitro ADME; conditions: recombinant Bactosomes, 10 minutes, 37° C.
Sequence of CYP3A4 (P08684 whole entry): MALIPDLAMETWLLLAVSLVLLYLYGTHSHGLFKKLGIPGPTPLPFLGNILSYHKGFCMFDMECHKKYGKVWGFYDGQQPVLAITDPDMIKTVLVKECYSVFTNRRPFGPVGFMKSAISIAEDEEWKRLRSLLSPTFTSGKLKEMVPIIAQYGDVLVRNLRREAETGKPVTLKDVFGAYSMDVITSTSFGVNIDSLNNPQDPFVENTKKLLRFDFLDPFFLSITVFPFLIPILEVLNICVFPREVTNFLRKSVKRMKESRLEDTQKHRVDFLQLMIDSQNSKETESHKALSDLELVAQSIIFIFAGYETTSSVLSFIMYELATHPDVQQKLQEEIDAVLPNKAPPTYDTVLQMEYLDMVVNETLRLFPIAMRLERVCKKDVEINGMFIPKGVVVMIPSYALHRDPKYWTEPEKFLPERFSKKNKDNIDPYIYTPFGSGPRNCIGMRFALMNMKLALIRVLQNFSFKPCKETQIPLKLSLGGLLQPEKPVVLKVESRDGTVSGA

How did the “% inhibition of disease” value [1] turn out when C[C@]1(O)CC[C@@H](NS(=O)(=O)c2ccc(-c3ccc(F)cc3F)cc2)CC1 [ABD899, reference compound] was run?
The value was 77%.

What about the IC50 (CYP2C19) of the same compound?
The IC50 was 7.3 µM.

And the “Rat Clint (μL/min/million cells)” value (rat hepatocytes)?
Its value is 57 μL/min/million cells.

And the “Rat t1/2” value (rat hepatocytes)?
Its value is 0.4 h.

And the IC50 (CYP1A2)?
Its IC50 is greater than 25 µM.

What about the IC50 (CYP2C9) of the same compound?
The IC50 was 3.9 µM.

What about the IC50 [2] of the same compound?
The IC50 was 0.2 µM.

What about the IC50 (CYP2D6) of the same compound?
Its IC50 is 45.3 µM.

What about the “Human Clint (uL/min/million cells)” value (human hepatocytes) of the same compound?
Its value is 9 uL/min/million cells.

What about the “Human t1/2” value (human hepatocytes) of the same compound?
Its value is 2.48 h.

What about the IC50 (CYP3A4) of the same compound?
Its IC50 is 21.6 µM.
